Experiments:
Assay in all cases: relative viability (nuclei count vs DMSO), 5 days (fraction); higher = more cells survive
Decitabine + Alpelisib = compound: Nc1ncn([C@H]2C[C@H](O)[C@@H](CO)O2)c(=O)n1 [Decitabine] + Cc1nc(NC(=O)N2CCC[C@H]2C(N)=O)sc1-c1ccnc(C(C)(C)C(F)(F)F)c1 [Alpelisib] (partner 2 µM)
Outline: (§1)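 Dosing by pin tool came one day after lung cancer cell lines were seeded in 1536-well plates, using either one drug or a fixed anchor-drug dose plus five library-drug doses (not always all listed) in √10 steps. After 5 days, nuclei were counted on 4× images. Relative viability is treated-well nuclei count divided by vehicle-well nuclei count, and values are medians of duplicate plates.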

[1] = compound: O=C(C[C@H]1NCCC[C@@H]1O)Cn1cnc2cc(Br)c(Cl)cc2c1=O (racemic) [Halofuginone] + CC1(C)CCC(c2ccc(Cl)cc2)=C(CN2CCN(c3ccc(C(=O)NS(=O)(=O)c4ccc(N[C@H](CCN5CCOCC5)CSc5ccccc5)c(S(=O)(=O)C(F)(F)F)c4)cc3)CC2)C1 [Navitoclax] (partner 0.5 µM)
Outline: as §1

Halofuginone + Foretinib = compound: O=C(C[C@H]1NCCC[C@@H]1O)Cn1cnc2cc(Br)c(Cl)cc2c1=O (racemic) [Halofuginone] + COc1cc2c(Oc3ccc(NC(=O)C4(C(=O)Nc5ccc(F)cc5)CC4)cc3F)ccnc2cc1OCCCN1CCOCC1 [Foretinib] (partner 0.25 µM)
Outline: as §1

[2] = compound: O=C(C[C@H]1NCCC[C@@H]1O)Cn1cnc2cc(Br)c(Cl)cc2c1=O (racemic) [Halofuginone] + C[C@]1(O)C[C@@H](c2nc(-c3ccc4ccc(-c5ccccc5)nc4c3)c3c(N)nccn32)C1 [Linsitinib] (partner 1 µM)
Outline: as §1

Cell Line: UMC-11
- relative viability (Decitabine + Alpelisib; first compound 0.04 µM): 0.848
- relative viability (Decitabine + Alpelisib; first compound 0.1265 µM): 0.535
- relative viability (Decitabine + Alpelisib; first compound 0.4 µM): 0.481
- relative viability (Decitabine + Alpelisib; first compound 1.265 µM): 0.309
- relative viability (Decitabine + Alpelisib; first compound 4 µM): 0.281
- relative viability ([1]; first compound 0.001 µM): 0.325
- relative viability ([1]; first compound 0.003162 µM): 0.314
- relative viability ([1]; first compound 0.01 µM): 0.324
- relative viability ([1]; first compound 0.03162 µM): 0.26
- relative viability ([1]; first compound 0.1 µM): 0.138
- relative viability (Halofuginone + Foretinib; first compound 0.001 µM): 1.11
- relative viability (Halofuginone + Foretinib; first compound 0.003162 µM): 1
- relative viability (Halofuginone + Foretinib; first compound 0.01 µM): 0.991
- relative viability (Halofuginone + Foretinib; first compound 0.03162 µM): 0.848
- relative viability (Halofuginone + Foretinib; first compound 0.1 µM): 0.72
- relative viability ([2]; first compound 0.001 µM): 1.09
- relative viability ([2]; first compound 0.003162 µM): 0.99
- relative viability ([2]; first compound 0.01 µM): 1.03
- relative viability ([2]; first compound 0.03162 µM): 0.963
- relative viability ([2]; first compound 0.1 µM): 0.752

Source: the supplement of paper PMC10307832
